From ChEMBL document CHEMBL5338758, “Design, Synthesis, and Bioevaluation of Novel MyD88 Inhibitor c17 against Acute Lung Injury Derived from the Virtual Screen” (J Med Chem, 2023)
Calls of active or inactive are those of the source. No cut-off for these calls is given here.

How the values were obtained:
[1] = Drug distribution in Sprague-Dawley rat heart at 10 mg/kg, po measured after 1 hrs by LC-MS/MS analysis; format: ADME, organism-based; details: read-out: Drug uptake
[2] = Cmax in Sprague-Dawley rat at 1 mg/kg, iv measured at 5 to 1440 min by LC-MS/MS analysis; format: ADME, organism-based; design: time upper 1440 min, dose 1 mg/kg, time lower 5 min, route iv; details: in vivo
Mus musculus [3] = experiment: Anti-inflammatory activity against LPS-induced […] mouse model of […] assessed as alleviation of lung edema by measuring decrease in total lung protein level at 20 mg/kg, po pre-treated with compound for 30 mins followed by LPS stimulation and measured after 6 hrs; format: functional, organism-based; details: time 6.5 hrs
[4] = Half-life in Sprague-Dawley rat at 1 mg/kg, iv measured at 5 to 1440 min by LC-MS/MS analysis; format: ADME, organism-based; details: in vivo, time 5-1440 min
Mus musculus [5] = experiment: (§1) Anti-inflammatory activity against LPS-induced […] mouse model of […] assessed as alleviation of tissue destruction in lung at 20 mg/kg, po pre-treated with compound for 30 mins followed by LPS stimulation and measured after 6 hrs by H&E staining based histopathological analysis; format: functional, organism-based; details: time 6.5 hrs
Mus musculus [6] = experiment: Anti-inflammatory activity against LPS-induced […] mouse model of […] assessed as alleviation of lung edema by measuring decrease in wet/dry weight ratio at 20 mg/kg, po pre-treated with compound for 30 mins followed by LPS stimulation and measured after 6 hrs; format: functional, organism-based; details: time 6.5 hrs
[7] = Toxicity in ICR mouse assessed as effect on body weight change at 20 to 400 mg/kg, po measured upto 21 days; format: organism-based; details: in vivo, 504 h, dose 20-400 mg/kg, time < 21 day
[8] = molecular target: TLR4-MyD88 (Mus musculus) (UniProt Q9QUK6+P22366); experiment: Inhibition of MyD88/TLR4 interaction in LPS-stimulated mouse J774.A1 cells at 40 to 80 uM preincubated with compound for 2 hrs followed by LPS stimulation by co-immunoprecipitation analysis; format: cell-based; details: dose 40-80 µM
[9] = Stability of compound in rat serum at 32 degreeC measured every 2 hrs for 24 hrs by HPLC analysis; format: ADME, cell-free
[10] = Drug distribution in Sprague-Dawley rat spleen at 10 mg/kg, po measured after 8 hrs by LC-MS/MS analysis; format: ADME, organism-based; details: read-out: Drug uptake
[11] = Drug distribution in Sprague-Dawley rat liver at 10 mg/kg, po measured after 8 hrs by LC-MS/MS analysis; format: ADME, organism-based; details: read-out: Drug uptake
[12] = AUC (0 to t) in Sprague-Dawley rat at 10 mg/kg, po measured at 15 to 1440 min by LC-MS/MS analysis; format: ADME, organism-based; design: time 15-1440 min, dose 10 mg/kg, route po; details: in vivo
[13] = Drug distribution in Sprague-Dawley rat spleen at 1 mg/kg, iv measured after 2 hrs by LC-MS/MS analysis; format: ADME, organism-based; details: read-out: Drug uptake
[14] = Drug distribution in Sprague-Dawley rat kidney at 10 mg/kg, po measured after 3 hrs by LC-MS/MS analysis; format: ADME, organism-based; details: read-out: Drug uptake
[15] = Drug distribution in Sprague-Dawley rat kidney at 1 mg/kg, iv measured after 0.5 hrs by LC-MS/MS analysis; format: ADME, organism-based; details: read-out: Drug uptake
J774.A1 [16] = experiment: Inhibition of NF-kappaB pathway in LPS-induced mouse J774.A1 cells assessed as […] in IkappaB-alpha phosphorylation at 10 to 40 uM preincubated with compound for 2 hrs followed by LPS-stimulation and measured after 15 mins by Western blot analysis; format: cell-based; details: dose 10-40 µM, time 135.0 min
J774.A1 [17] = experiment: Anti-inflammatory activity in mouse J774.A1 cells assessed as inhibition of LPS-induced IL-6 production at 10 uM pre-stimulated with LPS for 24 hrs followed by compound addition and measured after 0.5 hrs by ELISA analysis relative to control; format: functional
[18] = Drug distribution in Sprague-Dawley rat kidney at 1 mg/kg, iv measured after 2 hrs by LC-MS/MS analysis; format: ADME, organism-based; details: read-out: Drug uptake
[19] = AUC (0 to t) in Sprague-Dawley rat at 1 mg/kg, iv measured at 5 to 1440 min by LC-MS/MS analysis; format: ADME, organism-based; design: time upper 1440 min, time lower 5 min, dose 1 mg/kg, route iv; details: in vivo
Mus musculus [20] = experiment: Anti-inflammatory activity against LPS-induced […] mouse model of […] assessed as decrease in IL-6 level in serum at 20 mg/kg, po pre-treated with compound for 30 mins followed by LPS stimulation and measured after 6 hrs; format: functional, organism-based; details: time 6.5 hrs
Mus musculus [21] = experiment: as §1, with “thickened alveolar septa” for “tissue destruction”; format: functional, organism-based; details: time 6.5 hrs
[22] = Drug distribution in Sprague-Dawley rat liver at 10 mg/kg, po measured after 3 hrs by LC-MS/MS analysis; format: ADME, organism-based; details: read-out: Drug uptake
[23] = Toxicity in ICR mouse assessed as mortality at 20 to 400 mg/kg, po measured upto 21 days; format: organism-based; details: in vivo, 504 h, dose 20-400 mg/kg, time < 21 day
[24] = Drug distribution in Sprague-Dawley rat lung at 10 mg/kg, po measured after 3 hrs by LC-MS/MS analysis; format: ADME, organism-based; details: read-out: Drug uptake
[25] = Drug distribution in Sprague-Dawley rat lung at 1 mg/kg, iv measured after 2 hrs by LC-MS/MS analysis; format: ADME, organism-based; details: read-out: Drug uptake
J774.A1 [26] = experiment: Inhibition of NF-kappaB pathway in LPS-induced mouse J774.A1 cells assessed as reduction in p65 nuclear reactivity preincubated with compound for 2 hrs followed by LPS-stimulation and measured after 15 mins by DAPI staining based immunofluorescence analysis; format: cell-based; details: time 135.0 min
[27] = Drug distribution in Sprague-Dawley rat brain at 1 mg/kg, iv measured after 4 hrs by LC-MS/MS analysis; format: ADME, organism-based; details: read-out: Drug uptake
[28] = Drug distribution in Sprague-Dawley rat heart at 1 mg/kg, iv measured after 0.5 hrs by LC-MS/MS analysis; format: ADME, organism-based; details: read-out: Drug uptake
[29] = Drug distribution in Sprague-Dawley rat liver at 1 mg/kg, iv measured after 2 hrs by LC-MS/MS analysis; format: ADME, organism-based; details: read-out: Drug uptake
J774.A1 [30] = experiment: Anti-inflammatory activity in mouse J774.A1 cells assessed as inhibition of LPS-induced IL-6 production pre-stimulated with LPS for 24 hrs followed by compound addition and measured after 0.5 hrs by ELISA analysis; format: functional, cell-based
J774.A1 [31] = experiment: Inhibition of NF-kappaB pathway in LPS-induced mouse J774.A1 cells assessed as decrease in p65 nuclear translocation preincubated with compound for 2 hrs followed by LPS-stimulation and measured after 15 mins by Western blot analysis; format: cell-based; details: dose 10-40 µM, time 135.0 min
[32] = Drug distribution in Sprague-Dawley rat spleen at 10 mg/kg, po measured after 3 hrs by LC-MS/MS analysis; format: ADME, organism-based; details: read-out: Drug uptake
[33] = Oral bioavailability in Sprague-Dawley rat at 10 mg/kg measured at 15 to 1440 min by LC-MS/MS analysis; format: ADME, organism-based; details: in vivo, time 15-1440 min
J774.A1 [34] = experiment: Anti-inflammatory activity in mouse J774.A1 cells assessed as inhibition of LPS-induced TNF-alpha production at 10 uM pre-stimulated with LPS for 24 hrs followed by compound addition and measured after 0.5 hrs by ELISA analysis relative to control; format: functional
[35] = molecular target: Myeloid differentiation primary response protein MyD88 (Homo sapiens, UniProt Q99836); experiment: Binding affinity to human MyD88 TIR domain by SPR analysis; details: dose 1.19-5.94 10^-5M
Chain of Myeloid differentiation primary response protein MyD88 (Q99836 whole entry, the tested form may be a part): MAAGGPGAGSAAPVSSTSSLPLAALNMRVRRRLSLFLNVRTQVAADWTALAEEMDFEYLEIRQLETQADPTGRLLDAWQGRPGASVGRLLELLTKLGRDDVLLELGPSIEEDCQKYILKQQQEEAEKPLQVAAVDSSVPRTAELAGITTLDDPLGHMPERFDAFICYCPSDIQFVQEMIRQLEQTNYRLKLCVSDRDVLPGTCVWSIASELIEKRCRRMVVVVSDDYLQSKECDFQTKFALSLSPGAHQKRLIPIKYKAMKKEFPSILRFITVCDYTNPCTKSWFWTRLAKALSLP

Chain of TLR4-MyD88 (Mus musculus) (P22366 whole entry, looked up): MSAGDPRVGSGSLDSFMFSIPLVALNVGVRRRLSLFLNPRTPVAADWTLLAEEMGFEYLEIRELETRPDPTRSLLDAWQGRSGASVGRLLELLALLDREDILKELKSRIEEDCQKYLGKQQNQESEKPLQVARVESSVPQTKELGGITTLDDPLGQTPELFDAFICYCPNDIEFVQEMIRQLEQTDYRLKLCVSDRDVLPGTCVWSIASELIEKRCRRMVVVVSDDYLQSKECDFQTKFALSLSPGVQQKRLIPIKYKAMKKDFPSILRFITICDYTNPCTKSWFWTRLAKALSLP
Chain of TLR4-MyD88 (Mus musculus) (Q9QUK6 whole entry, looked up): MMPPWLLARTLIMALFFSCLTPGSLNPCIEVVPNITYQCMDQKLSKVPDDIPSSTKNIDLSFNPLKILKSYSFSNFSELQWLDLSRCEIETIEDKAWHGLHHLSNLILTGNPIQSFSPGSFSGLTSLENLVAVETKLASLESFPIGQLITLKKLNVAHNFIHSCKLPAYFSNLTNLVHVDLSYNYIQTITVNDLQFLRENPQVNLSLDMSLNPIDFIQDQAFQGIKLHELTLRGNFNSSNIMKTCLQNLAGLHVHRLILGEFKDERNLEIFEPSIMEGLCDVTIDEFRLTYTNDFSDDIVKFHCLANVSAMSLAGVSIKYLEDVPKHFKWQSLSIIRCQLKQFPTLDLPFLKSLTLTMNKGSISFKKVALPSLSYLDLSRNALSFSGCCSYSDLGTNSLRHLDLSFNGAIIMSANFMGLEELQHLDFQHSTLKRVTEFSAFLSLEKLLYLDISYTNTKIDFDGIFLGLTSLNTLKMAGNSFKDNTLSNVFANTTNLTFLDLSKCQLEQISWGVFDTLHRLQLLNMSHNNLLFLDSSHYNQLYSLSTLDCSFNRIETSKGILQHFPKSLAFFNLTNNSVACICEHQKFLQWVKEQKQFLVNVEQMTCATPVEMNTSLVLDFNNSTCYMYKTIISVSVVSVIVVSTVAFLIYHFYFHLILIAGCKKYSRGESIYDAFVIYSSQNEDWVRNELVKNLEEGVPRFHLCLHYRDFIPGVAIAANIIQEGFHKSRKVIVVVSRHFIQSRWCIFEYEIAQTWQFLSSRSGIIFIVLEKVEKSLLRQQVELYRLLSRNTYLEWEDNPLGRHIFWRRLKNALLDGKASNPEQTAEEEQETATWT

In the case of `COc1ccc(NS(=O)(=O)c2ccc(N3CCN(Cc4cccc([N+](=O)[O-])c4)CC3)c([N+](=O)[O-])c2)cn1`, the concentration at 1 h [1] is reported as 10.6 ng/g, the Cmax [2] is reported as 2770 ng/mL and the Activity (Mus musculus [3]) is reported as “Active”. The half-life [4] was 66 min, the Activity (Mus musculus [5]) was “Active” and the Activity (Mus musculus [6]) was “Active”. The Activity [7] was “Non-Toxic”, the inhibition [8] was “Active” and the Stability [9] was “Stable”. For the same compound, the concentration at 8 h [10] was 137 ng/g, the concentration at 8 h [11] was 249 ng/g and the AUCt [12] was 68163 ng·h/mL. For the same compound, the concentration at 2 h [13] was 76.8 ng/g, the concentration at 3 h [14] was 3.31 ng/g and the concentration at 0.5 h [15] was 52.5 ng/g. The inhibition (J774.A1 [16]) was “Active”, the inhibition at 10 µM (J774.A1 [17]) was 69% and the concentration at 2 h [18] was 143 ng/g. For the same compound, the AUCt [19] was 4795 ng·h/mL, the Activity (Mus musculus [20]) was “Active” and the Activity (Mus musculus [21]) was “Active”. The concentration at 3 h [22] was 287 ng/g, the Activity [23] was “Non-Toxic” and the concentration at 3 h [24] was 37.1 ng/g. The concentration at 2 h [25] was 206 ng/g, the inhibition (J774.A1 [26]) was “Active” and the concentration at 4 h [27] was 7.99 ng/g. It also gave a concentration at 0.5 h [28] of 52.1 ng/g, a concentration at 2 h [29] of 192 ng/g and an IC50 (J774.A1 [30]) of 2170 nM. For the same compound, the inhibition (J774.A1 [31]) was “Dose-Dependent Effect”, the concentration at 3 h [32] was 32 ng/g and the F [33] was 14.2%. The inhibition at 10 µM (J774.A1 [34]) was 36.7% and the Activity [35] was “Dose-Dependent Effect”.
